Measured values reported in US8962596B2 (Array BioPharma Inc., priority 2010, dated 2015).

Tests used:
Assay type in all cases: biochemical
Human Tyk2 kinase domain = molecular target: T1, Human Tyk2 kinase domain (Homo sapiens, UniProt P29597); assay: Tyk2 Inhibition Assay (Omnia kinase fluorescence peptide substrate assay); details: averaged IC50 ranges; assay of Example A; 10 μM (Km app) or 1 mM ATP, 2 nM Tyk2
T1 construct: comprising amino acids 886 to 1187 with 10 additional histidine residues; 10xHis (histidine tag) (C, cleaved yes); made in house
T1 sequence (P29597 886-1187): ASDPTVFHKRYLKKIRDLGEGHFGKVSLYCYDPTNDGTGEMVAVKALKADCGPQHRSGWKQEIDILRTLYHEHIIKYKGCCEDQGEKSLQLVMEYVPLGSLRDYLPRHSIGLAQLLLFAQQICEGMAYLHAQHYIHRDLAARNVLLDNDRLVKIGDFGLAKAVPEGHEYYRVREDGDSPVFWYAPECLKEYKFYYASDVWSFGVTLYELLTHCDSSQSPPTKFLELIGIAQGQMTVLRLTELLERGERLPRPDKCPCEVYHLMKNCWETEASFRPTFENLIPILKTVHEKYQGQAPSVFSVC
Outline: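 2 nM His-tag-cleaved kinase domain (aa 886–1187) with 8 μM Omnia Y12 peptide, 10 μM (Km app) or 1 mM ATP, pH 7.4 HEPES/10 mM MgCl2, 2% DMSO. Fluorescence (ex 360/em 485 nm) every 50 s for 45 min; IC50 from 4-parameter fit of POC, top dose 10 μM.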

JAK1 = molecular target: T2, JAK1 (Homo sapiens, UniProt P23458); assay: JAK1 Inhibition Assay (Omnia kinase fluorescence peptide substrate assay); details: averaged IC50 ranges; assay of Example B; 40 μM (Km app) or 1 mM ATP, 15 nM JAK1
T2 construct: purchased Invitrogen Corporation, Carlsbad, Calif; PV4775

JAK2 = molecular target: T3, JAK2 (Homo sapiens, UniProt O60674); assay: JAK2 Inhibition Assay (Omnia kinase fluorescence peptide substrate assay); details: averaged IC50 ranges; assay of Example C; 25 μM (Km app) or 1 mM ATP, 5 nM JAK2
T3 construct: purchased Invitrogen Corporation, Carlsbad, Calif; PV4288
Outline: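 A 10-point, 3-fold compound series (top 10 μM, 2% DMSO) was tested against 5 nM JAK2 with 10 μM Omnia Y7 substrate and either 1 mM or 25 μM (Km app) ATP. Buffer: pH 7.4 HEPES, MgCl2, Triton X-100, DTT. Sox fluorescence was monitored kinetically for 45 min; IC50 is the concentration giving 50 POC on a 4-parameter fit.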

JAK3 = molecular target: T4, JAK3 (Homo sapiens, UniProt P52333); assay: JAK3 Inhibition Assay (Omnia kinase fluorescence peptide substrate assay); details: averaged IC50 ranges; assay of Example D; 10 μM (Km app) or 1 mM ATP, 2.5 nM JAK3
T4 construct: purchased Invitrogen Corporation, Carlsbad, Calif; PV4080
T4 sequence (P52333 1-1124): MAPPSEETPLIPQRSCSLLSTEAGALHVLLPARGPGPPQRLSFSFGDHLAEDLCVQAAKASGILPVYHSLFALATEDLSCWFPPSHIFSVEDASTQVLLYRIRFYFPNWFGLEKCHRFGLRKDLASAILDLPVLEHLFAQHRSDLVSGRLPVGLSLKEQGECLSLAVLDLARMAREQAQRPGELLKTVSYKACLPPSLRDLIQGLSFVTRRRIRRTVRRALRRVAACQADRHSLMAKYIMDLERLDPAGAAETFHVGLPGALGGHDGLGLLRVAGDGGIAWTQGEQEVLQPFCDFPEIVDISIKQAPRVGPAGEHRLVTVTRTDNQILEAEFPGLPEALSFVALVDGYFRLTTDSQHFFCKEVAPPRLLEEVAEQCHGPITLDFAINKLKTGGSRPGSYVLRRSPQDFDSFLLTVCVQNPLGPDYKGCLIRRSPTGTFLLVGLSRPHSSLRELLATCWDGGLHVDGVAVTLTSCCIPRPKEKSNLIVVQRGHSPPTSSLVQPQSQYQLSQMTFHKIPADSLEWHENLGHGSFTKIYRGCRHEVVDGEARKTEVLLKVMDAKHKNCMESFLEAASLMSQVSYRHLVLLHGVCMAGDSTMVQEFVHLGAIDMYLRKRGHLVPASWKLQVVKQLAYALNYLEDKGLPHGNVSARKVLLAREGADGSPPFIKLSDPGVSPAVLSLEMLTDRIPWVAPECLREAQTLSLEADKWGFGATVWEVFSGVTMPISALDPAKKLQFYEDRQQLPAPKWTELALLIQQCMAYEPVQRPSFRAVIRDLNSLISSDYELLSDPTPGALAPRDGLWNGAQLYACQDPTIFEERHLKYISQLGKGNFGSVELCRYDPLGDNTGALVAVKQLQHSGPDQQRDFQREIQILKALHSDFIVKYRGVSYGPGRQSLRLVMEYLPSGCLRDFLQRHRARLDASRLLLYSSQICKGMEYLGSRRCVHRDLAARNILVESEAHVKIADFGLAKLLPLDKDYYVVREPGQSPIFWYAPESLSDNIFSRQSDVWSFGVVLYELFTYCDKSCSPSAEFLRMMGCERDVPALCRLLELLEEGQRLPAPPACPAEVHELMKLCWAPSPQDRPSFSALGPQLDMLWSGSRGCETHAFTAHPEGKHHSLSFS
Outline: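 Kinase at 2.5 nM with 10 µM Omnia Y7 peptide and 10 µM (Km app) or 1 mM ATP in 25 mM HEPES pH 7.4, 10 mM MgCl2, 1 mM DTT, 0.01% Triton X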

T3 sequence (O60674 whole entry): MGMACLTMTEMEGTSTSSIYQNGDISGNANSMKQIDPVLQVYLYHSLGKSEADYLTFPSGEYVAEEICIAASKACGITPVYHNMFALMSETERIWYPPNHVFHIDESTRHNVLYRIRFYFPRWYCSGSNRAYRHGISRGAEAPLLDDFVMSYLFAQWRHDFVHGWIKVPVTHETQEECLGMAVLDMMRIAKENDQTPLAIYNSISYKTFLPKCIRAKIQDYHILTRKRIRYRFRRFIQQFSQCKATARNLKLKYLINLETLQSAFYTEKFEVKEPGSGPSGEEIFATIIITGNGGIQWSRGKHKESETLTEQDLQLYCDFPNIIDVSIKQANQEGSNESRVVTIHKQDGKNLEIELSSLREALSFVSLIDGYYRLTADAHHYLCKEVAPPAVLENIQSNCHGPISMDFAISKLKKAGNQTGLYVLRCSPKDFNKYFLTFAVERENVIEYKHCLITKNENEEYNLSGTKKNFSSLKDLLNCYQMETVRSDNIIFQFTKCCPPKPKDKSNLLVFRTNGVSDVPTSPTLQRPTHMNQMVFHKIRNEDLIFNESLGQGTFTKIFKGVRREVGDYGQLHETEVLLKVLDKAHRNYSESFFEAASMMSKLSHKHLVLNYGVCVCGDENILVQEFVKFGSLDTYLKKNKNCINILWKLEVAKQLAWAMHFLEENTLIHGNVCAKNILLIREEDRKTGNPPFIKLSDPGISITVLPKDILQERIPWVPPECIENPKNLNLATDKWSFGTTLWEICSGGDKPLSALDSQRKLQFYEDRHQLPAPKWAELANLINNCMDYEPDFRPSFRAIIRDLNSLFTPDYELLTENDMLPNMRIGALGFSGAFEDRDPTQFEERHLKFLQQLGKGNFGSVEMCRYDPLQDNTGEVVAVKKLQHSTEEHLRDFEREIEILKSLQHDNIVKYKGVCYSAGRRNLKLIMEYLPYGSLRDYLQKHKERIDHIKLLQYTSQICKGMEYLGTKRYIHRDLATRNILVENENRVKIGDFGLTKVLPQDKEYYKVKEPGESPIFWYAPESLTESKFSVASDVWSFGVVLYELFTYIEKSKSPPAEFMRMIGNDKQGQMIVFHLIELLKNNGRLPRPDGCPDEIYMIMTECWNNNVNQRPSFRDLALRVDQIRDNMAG
T2 sequence (P23458 whole entry): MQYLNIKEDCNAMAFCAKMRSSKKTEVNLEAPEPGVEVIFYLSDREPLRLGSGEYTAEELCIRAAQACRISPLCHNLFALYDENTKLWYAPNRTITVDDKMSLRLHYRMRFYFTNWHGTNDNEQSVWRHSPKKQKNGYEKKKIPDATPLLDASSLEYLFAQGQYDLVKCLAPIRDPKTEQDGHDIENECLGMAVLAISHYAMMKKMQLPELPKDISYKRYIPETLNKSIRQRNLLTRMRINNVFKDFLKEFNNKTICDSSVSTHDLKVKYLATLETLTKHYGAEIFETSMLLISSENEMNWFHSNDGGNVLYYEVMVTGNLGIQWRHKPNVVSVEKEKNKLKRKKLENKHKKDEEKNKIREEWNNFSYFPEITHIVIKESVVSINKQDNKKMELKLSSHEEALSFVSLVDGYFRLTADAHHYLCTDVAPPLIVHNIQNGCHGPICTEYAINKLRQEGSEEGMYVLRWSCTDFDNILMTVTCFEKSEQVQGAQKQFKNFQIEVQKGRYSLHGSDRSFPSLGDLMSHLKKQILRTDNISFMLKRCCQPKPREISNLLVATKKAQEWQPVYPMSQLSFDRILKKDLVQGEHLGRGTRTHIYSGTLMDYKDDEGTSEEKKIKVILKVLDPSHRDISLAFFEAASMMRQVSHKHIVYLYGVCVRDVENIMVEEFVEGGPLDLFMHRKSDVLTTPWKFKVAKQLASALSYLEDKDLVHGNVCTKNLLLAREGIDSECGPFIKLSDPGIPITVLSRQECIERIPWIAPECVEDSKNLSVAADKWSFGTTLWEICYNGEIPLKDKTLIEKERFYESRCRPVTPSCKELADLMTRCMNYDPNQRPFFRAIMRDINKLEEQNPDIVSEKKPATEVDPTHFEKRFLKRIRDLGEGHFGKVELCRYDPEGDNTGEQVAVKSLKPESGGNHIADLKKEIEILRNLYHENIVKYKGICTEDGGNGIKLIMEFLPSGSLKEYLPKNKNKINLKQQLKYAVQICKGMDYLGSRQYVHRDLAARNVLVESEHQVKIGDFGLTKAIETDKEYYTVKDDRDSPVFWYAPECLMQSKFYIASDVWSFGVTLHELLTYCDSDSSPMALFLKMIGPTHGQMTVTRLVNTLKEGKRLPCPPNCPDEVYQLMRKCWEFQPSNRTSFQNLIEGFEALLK

Row | SMILES | IC50 (Human Tyk2 kinase domain) [nM] | IC50 (JAK1) [nM] | IC50 (JAK2) [nM] | IC50 (JAK3) [nM]
1 | Cn1cc(-c2cc3nccn3c(-c3cnn(C(CC#N)C4CC4)c3)n2)cn1 (single isomer, unassigned; enantiomer 1) [Example 3, Enantiomer 1 of 3-cyclopropyl-3-(4-(7-(1-methyl-1H-pyrazol-4-yl)imidazo[1,2-c]pyrimidin-5-yl)-1H-pyrazol-1-yl)propanenitrile (Peak 1)] | 10 to 100 | 100 to 1000 | 100 to 1000 | 100 to 1000
2 | Cn1cc(-c2cc3nccn3c(-c3cnn(C(CC#N)CC(C)(C)C)c3)n2)cn1 (centres unmarked) [Example 5] | 10 to 100 | 100 to 1000 | 100 to 1000 | > 1000
3 | COc1ncc(-c2cc3nccn3c(-c3cnn(C4(CC#N)CN(S(=O)(=O)C5CC5)C4)c3)n2)cn1 [Example 141, 2-(1-(cyclopropylsulfonyl)-3-(4-(7-(2-methoxypyrimidin-5-yl)imidazo[1,2-c]pyrimidin-5-yl)-1H-pyrazol-1-yl)azetidin-3-yl)acetonitrile] | 10 to 100 | > 1000 | 100 to 1000 | > 1000
4 | CC(C)(CC#N)n1cc(-c2nc(-c3ccc(N4CCOCC4)cc3)cc3nccn23)cn1 [Example 116, 3-methyl-3-(4-(7-(4-morpholinophenyl)imidazo[1,2-c]pyrimidin-5-yl)-1H-pyrazol-1-yl)butanenitrile] | 10 to 100 | 100 to 1000 | 100 to 1000 | > 1000
5 | N#CCC(C1CC1)n1cc(-c2nc(C(=O)NC3CCC3)cc3nccn23)cn1 (centres unmarked) [Example 124, 5-(1-(2-Cyano-1-cyclopropylethyl)-1H-pyrazol-4-yl)-N-cyclobutylimidazo[1,2-c]pyrimidine-7-carboxamide] | 100 to 1000 | > 1000 | > 1000 | > 1000
6 | N#CCC(C1CC1)n1cc(-c2nc(-c3cncs3)cc3nccn23)cn1 (centres unmarked) [Example 47, 3-Cyclopropyl-3-(4-(7-(thiazol-5-yl)imidazo[1,2-c]pyrimidin-5-yl)-1H-pyrazol-1-yl)propanenitrile] | 10 to 100 | 100 to 1000 | 100 to 1000 | > 1000
7 | Cn1cc(-c2cc3nccn3c(-c3cnn(C4(CC#N)CCCCC4)c3)n2)cn1 [Example 22, 2-(1-(4-(7-(1-methyl-1H-pyrazol-4-yl)imidazo[1,2-c]pyrimidin-5-yl)-1H-pyrazol-1-yl)cyclohexyl)acetonitrile] | 10 to 100 | 100 to 1000 | 100 to 1000 | > 1000

The next lines start with the values.

Row | IC50 (Human Tyk2 kinase domain) [nM] | IC50 (JAK1) [nM] | IC50 (JAK2) [nM] | IC50 (JAK3) [nM] | SMILES
8 | < 10 | 10 to 100 | 10 to 100 | 100 to 1000 | Cn1cc(-c2cc3nccn3c(-c3cnn(C4(CC#N)CN(CC(F)(F)C(F)(F)F)C4)c3)n2)cn1 [Example 70, 2-(3-(4-(7-(1-Methyl-1H-pyrazol-4-yl)imidazo[1,2-c]pyrimidin-5-yl)-1H-pyrazol-1-yl)-1-(2,2,3,3,3-pentafluoropropyl)azetidin-3-yl)acetonitrile]
9 | 10 to 100 | 100 to 1000 | 100 to 1000 | > 1000 | N#CCC(C1CC1)n1cc(-c2nc(-c3cn[nH]c3)cc3nccn23)cn1 (centres unmarked) [Example 33, 3-(4-(7-(1H-pyrazol-4-yl)imidazo[1,2-c]pyrimidin-5-yl)-1H-pyrazol-1-yl)-3-cyclopropylpropanenitrile]
10 | < 10 | 10 to 100 | < 10 | 100 to 1000 | Cn1cc(-c2cc3ncc(F)n3c(-c3cnn(C4(CC#N)CN(S(=O)(=O)C(F)(F)F)C4)c3)n2)cn1 [Example 154, 2-(3-(4-(3-fluoro-7-(1-methyl-1H-pyrazol-4-yl)imidazo[1,2-c]pyrimidin-5-yl)-1H-pyrazol-1-Y1)-1-((trifluoromethyl)sulfonyl)azetidin-3-yl)acetonitrile]
11 | < 10 | 10 to 100 | 10 to 100 | 100 to 1000 | Cn1cc(-c2cc3nccn3c(-c3cnn(C(CC#N)C4CC4(F)F)c3)n2)cn1 (mixture of isomers) [Example 147, 3-(2,2-difluorocyclopropyl)-3-(4-(7-(1-methyl-1H-pyrazol-4-yl)imidazo[1,2-c]pyrimidin-5-yl)-1H-pyrazol-1-yl)propanenitrile]
12 | 10 to 100 | 100 to 1000 | 10 to 100 | > 1000 | CC(C)OCCn1cc(-c2cc3nccn3c(-c3cnn(C(CC#N)C4CC4)c3)n2)cn1 (centres unmarked) [Example 41, 3-cyclopropyl-3-(4-(7-(1-(2-isopropoxyethyl)-1H-pyrazol-4-yl)imidazo[1,2-c]pyrimidin-5-yl)-1H-pyrazol-1-yl]propanenitrile]
13 | < 10 | 100 to 1000 | 10 to 100 | > 1000 | Cn1cc(-c2cc3nccn3c(-c3cnn(C4(CC#N)CN(CC(F)(F)F)C4)c3)n2)cn1 [Example 71, 2-(3-(4-(7-(1-methyl-1H-pyrazol-4-yl)imidazo[1,2-c]pyrimidin-5-yl)-1H-pyrazol-1-yl)-1-(2,2,2-trifluoroethyl)azetidin-3-yl)acetonitrile]
14 | < 10 | 100 to 1000 | 10 to 100 | 100 to 1000 | Cn1cc(-c2cc3ncc(Cl)n3c(-c3cnn(C4(CC#N)CN(CC(F)(F)F)C4)c3)n2)cn1 [Example 90, 2-(3-(4-(3-Chloro-7-(1-methyl-1H-pyrazol-4-yl)imidazo[1,2-c]pyrimidin-5-yl)-1H-pyrazol-1-yl)-1-(2,2,2-trifluoroethyl)azetidin-3-yl)acetonitrile]
15 | < 10 | 100 to 1000 | 10 to 100 | > 1000 | Cn1cc(-c2cc3nccn3c(-c3cnn(C4(CC#N)CC5(COC5)C4)c3)n2)cn1 [Example 148, 2-(6-(4-(7-(1-methyl-1H-pyrazol-4-yl)imidazo[1,2-c]pyrimidin-5-yl)-1H-pyrazol-1-yl)-2-oxaspiro[3.3]heptan-6-yl)acetonitrile]
16 | < 10 | 100 to 1000 | 100 to 1000 | > 1000 | CCCS(=O)(=O)N1CC(CC#N)(n2cc(-c3nc(-c4cnn(C)c4)cc4nccn34)cn2)C1 [Example 93, 2-(3-(4-(7-(1-methyl-1H-pyrazol-4-yl)imidazo[1,2-c]pyrimidin-5-yl)-1H-pyrazol-1-yl)-1-(propylsulfonyl)azetidin-3-yl)acetonitrile]
17 | < 10 | 10 to 100 | 10 to 100 | 100 to 1000 | CN1CCC(c2ccc(-c3cc4nccn4c(-c4cnn(C(CC#N)C5CCCC5)c4)n3)cc2)CC1 (centres unmarked) [Example 110, 3-Cyclopentyl-3-(4-(7-(4-(1-methylpiperidin-4-yl)phenyl)imidazo[1,2-c]pyrimidin-5-yl)-1H-pyrazol-1-yl)propanenitrile]
